Entries after “also recorded” stand apart in the source; their conditions may differ.
Legend:
T2 cells = test: In vitro cytotoxicity assay against T2 cells (LDH release); format: cell-based; conditions: peptide-pulsed T2 cells 1×10^5/well, effector:target 10:1, 20:1, 40:1, 37° C, 5 hours, 3 independent experiments
Procedure: T2 cell is (transporter associated with antigen processing, TAP) deficient cell line. When T2 cell is cultured with different epitopes, the HLA-A0201 molecule on surface of T2 cell will bind to different epitopes, the epitope-HLA-A0201 complex can be recognized by epitope-specific T cells and corresponding T2 cell will be lysed. In order to determine the cytotoxic activity of epitope-specific T cells, we measured LDH release based on the instructions of a non-radioactive cytotoxicity assay kit (Promega, USA). Epitope-specific T cells served as effector cells, and T2 cells loaded with or without each peptide served as target cells. The ratios of effector cells versus target cells were set to 10:1, 20:1 and 40:1. The effector cells were co-cultured with target cells (1×10^5/well) at 37° C for 5 hours, and LDH release was measured.

HBsAg = conditions: co-culture with HepG2.2.15 cells, effector:target 10:1, 72 hours, supernatant ELISA; versus PBS group; 3 independent experiments
Procedure: (§1) To validate the ability of epitopes to induce and stimulate the epitope-specific T cells, we used PBMCs from the blood of healthy donors. […] PBMCs were obtained through centrifugation at a Ficoll-Paque density gradient and suspended in RPMI-1640 medium supplemented with 10% fetal bovine serum (FBS), 100 U/ml penicillin and 100 μM streptomycin. PBMCs were stained by FITC-conjugated anti-HLA-A2 mAb and analyzed by flow cytometry. HLA-A0201-positive PBMCs were used for the expansion of epitope-specific T cells. PBMCs were cultured with each peptide (50 μM) and recombinant interleukin 2 (100 U/ml; Sigma, USA). Half of the culture medium was replaced with fresh RPMI-1640 medium every 3 or 4 days. […]
(§2) The antiviral abilities of epitopes were also determined by HBV gene expression assay. […] The HBsAg concentration was detected by enzyme-linked immunosorbent assay (ELISA) according to the manufacturer’s protocol (Shanghai Siic Kehua Biotech Co., Ltd.). And the HBV-DNA concentration was detected by real-time fluorescence quantitative PCR according to the manufacturer’s protocol (Yaneng Bioscience (Shenzhen) Co., Ltd.). […] The inhibition ratios of HBsAg and HBV-DNA were calculated as the formula: (1- experimental group/ control group)×100%.

HepG2.2.15 cells = test: In vitro cytotoxicity assay against HepG2.2.15 cells (LDH release); format: cell-based; conditions: effector:target 20:1, 37° C, 12 hours, versus PBS-induced control, 3 independent experiments
Procedure: In order to determine the antiviral abilities of epitope-specific T-cells, we detect the cytotoxicity of epitope-specific T cells against HepG2.2.15 cell. […] The ratios of epitope-specific T-cells versus HepG2.2.15 cells were set to 5:1, 10:1, 20:1. The effector cells and target cells were incubated together in 96-well plates at 37° C for 12 hours, and each well was added to total volume of 200 ul. The cytotoxicity activity of epitope-specific T-cells was evaluated based on LDH release using a non-radio-active cytotoxicity assay kit (Promega, US). The percentage of lysis was calculated as formula: (experimental release- target cell spontaneous release- effector cell spontaneous release)/(target cell maximum release- target cell spontaneous release).

[1] = tested on: epitope-specific T cells from PBMCs of healthy donors; test: In vitro human IFN-γ ELISPOT assay of epitope-specific T cells; format: cell-based; conditions: HLA-A0201-positive PBMCs of healthy donors cultured with peptide 50 μM and IL-2 100 U/ml, day 20; T cells 5x10^5/ml; versus PBS-induced control; 3 independent experiments
Procedure: In order to measure the ability of epitope-specific T cells to produce IFN-γ, the ELISPOT assay was performed according to the instructions of the kit (Invitrogen, Carlsbad, CA, USA). Epitope-specific T cells(5x10^5/ml) were added to plates. An automated ELISPOT plate reader was used to quantify IFN-γ release by counting the number of spots present.

HBV-DNA = test: HBV gene expression assay: HBV-DNA (real-time fluorescence quantitative PCR); format: cell-based, Hepatitis B virus; conditions: co-culture with HepG2.2.15 cells, effector:target 10:1, 72 hours, supernatant quantitative PCR; versus PBS group; 3 independent experiments
Procedure: as §1, §2

HLA-A0201 molecule = biological target: T1, HLA-A0201 molecule (Homo sapiens, UniProt P04439, D140Y/D185E/D98H/E176V/E277Q/G131W/G231S/I119V/I121R/I166T/I218V/L300P/L318F/N151K/N90K/P208A/P217A/Q86G/Q94H/R138H/R169H/T345S); test: Peptide binding assay on T2 cells (HLA-A0201, flow cytometry); conditions: T2 cells 1×10^6/well, peptide 100 μM, 18 hours, 37° C; FITC anti-HLA-A2 mAb BB7.2, flow cytometry; FI = (MFI peptide - background MFI)/background MFI; FI > 1 = high affinity; one representative of 3 independent experiments
T1 construct: endogenous in cells; host or cells: T2 cells (TAP-deficient human cell line)
Procedure: To analyze the binding affinity between epitopes and the HLA-A0201 molecule, we performed a peptide binding assay according to our previous study [18]. Briefly, T2 cells (1×10^6/well) were incubated with peptides (100 μM) in 24-well plates for 18 hours at 37° C. T2 cells without peptides served as a background control. After being washed with phosphate buffer saline (PBS) three times, cells were stained with FITC-conjugated anti-HLA-A2 mAb BB7.2 and analyzed using a BD AccuriC6 flow cytometer (Becton Dickinson, Mountain View, CA, USA). The mean fluorescence index (MFI) was recorded [43]. We calculated the fluorescence index (FI) as follows: FI = (MFI with individual peptides - background MFI)/(background MFI).

Row | Sequence | Cytotoxic activity of epitope-specific T cells toward T2 cells (in words) (T2 cells) | Inhibition of HBsAg expression by epitope-specific T cells (in words) (HBsAg) | Cytotoxic activity of epitope-specific T cells against HepG2.2.15 cells (in words) (HepG2.2.15 cells) | IFN-γ secretion of epitope-specific T cells (ELISPOT, in words) [1] | Elimination of HBV-DNA by epitope-specific T cells (in words) (HBV-DNA) | Fluorescence index (FI) (HLA-A0201 molecule)
1 | GLLGFAAPF | higher cytotoxic activity toward T2 cells compared to T cells stimulated by other epitopes | higher activities to inhibit the expression of HBsAg compared to the PBS group (P<0.05) | higher cytotoxic activities against HepG2.2.15 cells compared to control group (P<0.05) | more IFN-γ secretion than was measured in control (P<0.05) | higher abilities to eliminate HBV-DNA compared to the PBS group (P<0.05) | –
2 | HLPDRVHFA | – | – | – | – | – | 0.2920
3 | HLYSHPIIL | higher cytotoxic activity toward T2 cells compared to T cells stimulated by other epitopes | higher activities to inhibit the expression of HBsAg compared to the PBS group (P<0.05) | higher cytotoxic activities against HepG2.2.15 cells compared to control group (P<0.05) | more IFN-γ secretion than was measured in control (P<0.05) | higher abilities to eliminate HBV-DNA compared to the PBS group (P<0.05) | –
4 | RVTGGVFLV | lesser ability to induce epitope-specific T cells | – | higher cytotoxic activities against HepG2.2.15 cells compared to control group (P<0.05); also recorded: obvious weaker than the other two epitopes | lesser ability to induce epitope-specific T cells | – | –
5 | YVIGSWGTL | – | – | – | – | – | 0.8953
